Test results: patent US9845457B2, “Maintenance of genomic stability in cultured stem cells” (Cedars-Sinai Medical Center, priority 2010, dated 2017)

What was measured:
[1] = test system: human cardiosphere-derived cells; assay: Intracellular ROS levels (DCF fluorescence) after 24 hours short-term exposure; type: cell-based; details: 20% O2, antioxidant A 100-1,000,000-fold dilution, B 0.1-1000 μM, catalase 0.1-1000 units/ml, H2O2 0.1-1000 μM
Procedure: To assay intracellular ROS levels (ROS levels), twice-passaged CDCs were seeded in 6- or 96-well plates coated with 20 μg/ml fibronectin, and continuously cultured under the abovementioned four different conditions. At about 90% confluence, cells were incubated with 10 μM 2′,7′-dichlorodihydrofluorescein diacetate (DCFH-DA) (Invitrogen) for 60 min to allow DCFH-DA to diffuse into cells. The DCF fluorescence intensity in cells cultured in 96-well plates is directly determined using SpectraMax® M5 (Molecular Devices Corp.) with an excitation wavelength of 495 nm and an emission wavelength of 520 nm. Cells cultured in 6-well plates were trypsin-treated and fixed. The DCF fluorescence intensity in cells was analyzed using a FACS Calibur flow cytometer with CellQuest software (BD Biosciences).
Twice-passaged cells were seeded in 6- or 96-well plates coated with 20 μg/ml fibronectin. […] After 24 hours of culture, the DCF fluorescence intensity in cells was measured using the same methods as disclosed above.
CDCs were initially maintained in traditional 5% CO2/20% O2 culture condition and then seeded into 96-well plates and cultured for 24 hours under experimental conditions. […] Dev. for six separate experiments using different twice-passaged CDCs. (a.u.: arbitrary units. * p<0.01, †p<0.05 vs. the baseline levels, represented by “0” on the x-axis). […]

[2] = test system: human CDCs; type: cell-based
Procedure: CDCs were expanded in conventional conditions under 20% O2 as described above. Twice-passaged CDCs and ES cells were used in these Examples. Cells were seeded in 96-well plates coated with 20 μg/ml fibronectin. […] After 24 hours of culture, cells were fixed, permeabilized and stained with rabbit polyclonal antibody against γ-H2AX (phosphor 5139, Abeam Inc.). After being washed, the cells were stained with a PE-conjugated secondary antibody and 4,6-diamidino-2-phenylindole (DAPI). Quantification of cells positive for γ-H2AX foci was performed by fluorescence microscopy (×40 magnification). Briefly, at least 5 images were captured from each culture condition from randomly-selected fields using Q-imaging (RETIGA EXi FAST, Canada) with the same exposure time. Cells with γ-H2AX foci in the nuclei were counted by a single observer blinded to treatment regimen, and the percentage of cells with γ-H2AX foci in each culture condition was used for statistical analysis.

[3] = test system: ATR, Rad50, Rad51, Chk1, Chk2; assay: Western blotting of other DNA repair factors after 24 hours short-term exposure; type: cell-based, human; details: 20% O2, high concentrations
Procedure: To examine the protein levels of ATM and other DNA repair-related factors, total protein was purified from twice-passaged CDCs cultured under the abovementioned four different conditions, using well-established laboratory techniques. Briefly, harvested cells were homogenized in a lysis buffer containing a protease inhibitor mixture (Roche Applied Science) on ice. After centrifugation at 15,000 rpm for 10 min, the supernatant was collected for experiments. The equivalent of 30 μg of total protein was loaded onto 5% or 10% SDS-PAGE gels, and then transferred to PVDF membranes. […] Quantitation for blots was done by Quantity One software, and expressions were normalized by β-actin.
Twice-passaged cells were seeded in 6-well plates coated with 20 μg/ml fibronectin. […] The expression of ATM and other DNA repair-related factors was assessed by Western blotting as described above.

Compound	ROS levels, dose response [1]	percentage of CDCs with γ-H2AX foci (DNA damage), dose response [2]	expression levels of ATR, Rad50, Rad51, Chk-1, and Chk-2 [3]
OO [Antioxidant H2O2, hydrogen peroxide]	increased	increased DNA damage dose-dependently	increased
catalase	decreased	A similar result	slightly or obviously decreased
